US20230183265A1, “Crystal Form of Macrocyclic Tyrosine Kinase Inhibitor and Preparation Method therefor” (SHANDONG XUANZHU PHARMA CO., LTD., priority 2020, published 2023)

Legend:
[1] = system: Ba/F3 ETV6-NTRK3-G623R cell line; assay: In vitro cytological inhibitory activity (CelltiterGlo assay); format: cell-based; settings: Mus musculus, BaF3, 72 hours
Source text: (§1) Test compound: the compound represented by Formula (I), prepared according to the method in Embodiment 1.
(§2) The meanings of cell lines used in the experiment are as follows: • Ba/F3 LMNA-NTRK1-G595R cell line: • A stably expressed cell line of Ba/F3 cells transfected with LMNA-NTRK1 G595R; and • Ba/F3 ETV6-NTRK3-G623R cell line: • A stably expressed cell line of Ba/F3 cells transfected with ETV6-NTRK3-G623R.
(§3) Experimental Method (CelltiterGlo Assay)
(§4) 1. Cell Culture and Inoculation
(§5) All cells were suspension cells, and all culture mediums were RPM1-1640+10% FBS. The cells were tested in a logarithmic growth phase.
(§6) The cells in the logarithmic growth phase were collected and counted by a […]. A trypan blue exclusion method was used to detect the cell activity, to ensure that the cell activity was above 90%. It was adjusted to the appropriate concentration, and 90 μL of cell suspension was respectively added to a 96-well plate.
(§7) 2. Preparation of Test Compound
(§8) “M” means “mol/L”, “mM” means “mmol/L”, and “μM” means “μmol/L”. […]
(§9) A CellTiter-Glo luminescent cell viability assay (CTG) reagent was molten and a cell plate was balanced to a room temperature for 30 minutes. […] The light signal value was read by a multifunctional microplate reader.
(§10) 1) Inhibition rate (%)=(DMSO solvent control well reading−test compound well reading)/(DMSO solvent control well reading−blank well reading)×[…]; and […]

[2] = system: Ba/F3 LMNA-NTRK1-G595R cell line; assay: as above; format: cell-based; settings: Mus musculus, BaF3, 72 hours
Source text: as §1, §2, §3, §4, §5, §6, §7, §8, §9, §10

[3] = system: Ba/F3 SLC34A2/ROS1-G2032R cell line; assay: In vitro cytological inhibitory activity (Celltiter-Glo assay); format: cell-based; settings: Mus musculus, BaF3, 72 hours
Protocol: as §1
The meanings of cell lines used in the experiment are as follows: • Ba/F3 SLC34A2/ROS1-G2032R cell line: • A stably expressed cell line of Ba/F3 cells transfected with SLC34A2/ROS1-G2032R.
Experimental Method (Celltiter-Glo Assay)
as §4, §5
as §6, with “activity, as” for “activity,”
as §7
2.2 Preparation of Working Stock Solution of Test Compound […]
A CTG reagent was molten and a cell plate was balanced to a room temperature for 30 minutes. […] The light signal value was read by a multifunctional microplate reader.
1) Cell survival rate (%)=(test compound well reading−blank well reading)/(DMSO solvent control well reading−blank well reading)×100%; and […]

[4] = system: xenograft tumor of BaF3 LMNA-NTRK1-G595R stably transfected cell line; assay: Efficacy study on BaF3 LMNA-NTRK1-G595R stable cell strain subcutaneous xenograft model; format: in vivo, mouse (NOD-SCID); settings: bid, p.o., 7 days
Protocol: Test substance: the compound represented by Formula (I), prepared according to the method in Embodiment 1.
A BaF3LMNA-NTRK1-G595R stably transfected cell line resuspended in a RPM11640 serum-free medium was inoculated subcutaneously on a right scapula of a mouse (nonobese diabetic-severe combined immunodeficiency disease (NOD-SCID)) at 1×10^6 cells/mouse (0.1 ml/mouse).
3.2 Grouping Administration
While the average tumor volume was about 500 mm^3, it was randomly divided into a vehicle group, a compound represented by Formula (I) (10/5/3/1 mg/kg, bid) group and a LOXO-195 group (30/10/3 mg/kg, bid).
3.3 Experimental Evaluation Index
1) Tumor growth inhibition rate TGI (%) • TGI (%)=(1−T/C)×100%
2) Tumor volume ratio of Treatment group/Control group TIC (%) • TIC (%)=TRTV/CRTV×100% • RTV=Vt/V0, herein Vt is the tumor volume on the t-th day after grouping, and V0 is the tumor volume on the day of grouping; TRTV: the average relative tumor volume in the administration group; and CRTV: the average relative tumor volume in the vehicle control group.

[5] = Stability test of crystal form II; format: physicochemical
Protocol: Test sample: the crystal form II of the compound represented by Formula (I)
Test method: a suitable amount of the test samples was respectively weighed, and the appearance, moisture, content, related substances, XRD, and DSC of the test samples were investigated after being placed under the following conditions. The placing conditions were as follows.
Under the conditions of 60° C.±2° C., or of 25° C. RH92.5%, it was placed for 10 days, opened/closed, and a sample was taken for testing on the 10th day (the opened package is a flat weighing bottle, and the closed package is a low-density polyethylene bag or low-density polyethylene bag+composite film bag.
Under the conditions of 40° C. RH75%, it was placed for one month, opened/closed, and a sample was taken for testing after one month (the opened package is the flat weighing bottle, and the closed package is the low-density polyethylene bag or low-density polyethylene bag+composite film bag).
Moisture: it was determined according to the first 2 coulometric titration of the general rule 0832 (moisture determination) of the Chinese Pharmacopoeia (2015 Edition, Part IV).
XRD: it was determined according to the general rule 0451 (X-ray diffraction) of the Chinese Pharmacopoeia (2015 Edition, Part IV).
DSC: it was determined at a heating rate of 3° C./min, from 100° C. to 200° C.
Related substances and content: it was determined according to the general rule 0512 (HPLC) of the Chinese Pharmacopoeia (2015 Edition, Part IV).

[6] = Hygroscopicity test of crystal form II; format: physicochemical
Protocol: 2. Hygroscopicity Test of Crystal Form II
Test sample: the crystal form II of the compound represented by Formula (I).
Test method: it was determined according to the general rule 9103 (guidelines of drug hygroscopicity test) of the Chinese Pharmacopoeia (2015 Edition, Part IV): the test sample was placed under the condition of 25° C. and RH80% for 24 h (a sample bottle was placed under this condition for 24 h in advance), and results were shown in Table 2: […]

[7] = 25° C. RH 92.5% 10 days, Opened
[8] = 25° C. RH 92.5% 10 days, Polyethylene bag
[9] = 25° C. RH 92.5% 10 days, Polyethylene bag + composite film bag
[10] = 40° C. RH 75% 1M, Polyethylene bag
[11] = 40° C. RH 75% 1M, Polyethylene bag + composite film bag
[12] = 60° C. 10 days, Polyethylene bag
[13] = 60° C. 10 days, Polyethylene bag + composite film bag

C[C@@H]1COc2ncc(F)cc2[C@H]2CCCN2c2ccc3ncn(c3n2)C(=O)N1 [Compound represented by Formula (I), (2^2R, 6R)-3^5-fluoro-6-methyl-1^3H-4-oxa-7-aza-1(5,3)-imidazo[4,5-b]pyridina-3(3,2)-pyridina-2(1,2)-pyrrolidina cyclooctaphan-8-one]
IC50 [1]: 1 nM | IC50 [2]: 0.6 nM | IC50 [3]: 2.3 nM | T/C ([4]; experiment 1, 3 mg/Kg): 73.2% | TGI ([4]; experiment 1, 3 mg/Kg): 26.8% | T/C ([4]; experiment 2, 1 mg/Kg): 53.7% | TGI ([4]; experiment 2, 1 mg/Kg): 46.3% | T/C ([4]; experiment 2, 5 mg/Kg): 0% | TGI ([4]; experiment 2, 5 mg/Kg): 100% | T/C ([4]; experiment 2, 10 mg/Kg): 0% | TGI ([4]; experiment 2, 10 mg/Kg): 100%

C[C@@H]1COc2ncc(F)cc2[C@H]2CCCN2c2ccc3ncn(c3n2)C(=O)N1 [Crystal form II, (2^2R,6R)-3^5-fluoro-6-methyl-1^3H-4-oxa-7-aza-1(5,3)-imidazo[4,5-b]pyridina-3(3,2)-pyridina-2(1,2)-p yrrolidinacyclooctaphan-8-one]
Appearance ([5]; 0 day): Off-white | Content ([5]; 0 day): 100.4% | DSC ([5]; 0 day): 162.32 °C | Moisture ([5]; 0 day): 0.088% | Total related substance ([5]; 0 day): 0.09% | Appearance [5, 7]: Off-white | Content [5, 7]: 99.6% | DSC [5, 7]: 162.23 °C | Moisture [5, 7]: 0.13% | Total related substance [5, 7]: 0.11% | XRD [5, 7]: Same | Appearance [5, 8]: Off-white | Content [5, 8]: 99.5% | DSC [5, 8]: 162.23 °C | Moisture [5, 8]: 0.11% | Total related substance [5, 8]: 0.10% | XRD [5, 8]: Same | Appearance [5, 9]: Off-white | Content [5, 9]: 99.3% | DSC [5, 9]: 162.27 °C | Moisture [5, 9]: 0.11% | Total related substance [5, 9]: 0.11% | XRD [5, 9]: Same | Appearance ([5]; 40° C. RH 75% 1M, Opened): Off-white | Content ([5]; 40° C. RH 75% 1M, Opened): 100.8% | DSC ([5]; 40° C. RH 75% 1M, Opened): 162.29 °C | Moisture ([5]; 40° C. RH 75% 1M, Opened): 0.026% | Total related substance ([5]; 40° C. RH 75% 1M, Opened): 0.10% | XRD ([5]; 40° C. RH 75% 1M, Opened): Same | Appearance [5, 10]: Off-white | Content [5, 10]: 101.0% | DSC [5, 10]: 162.18 °C | Moisture [5, 10]: 0.033% | Total related substance [5, 10]: 0.10% | XRD [5, 10]: Same | Appearance [5, 11]: Off-white | Content [5, 11]: 101.0% | DSC [5, 11]: 162.35 °C | Moisture [5, 11]: 0.036% | Total related substance [5, 11]: 0.10% | XRD [5, 11]: Same | Appearance ([5]; 60° C. 10 days, Opened): Off-white | Content ([5]; 60° C. 10 days, Opened): 99.8% | DSC ([5]; 60° C. 10 days, Opened): 162.24 °C | Moisture ([5]; 60° C. 10 days, Opened): 0.18% | Total related substance ([5]; 60° C. 10 days, Opened): 0.11% | XRD ([5]; 60° C. 10 days, Opened): Same | Appearance [5, 12]: Off-white | Content [5, 12]: 100.0% | DSC [5, 12]: 162.26 °C | Moisture [5, 12]: 0.15% | Total related substance [5, 12]: 0.11% | XRD [5, 12]: Same | Appearance [5, 13]: Off-white | Content [5, 13]: 99.7% | DSC [5, 13]: 162.23 °C | Moisture [5, 13]: 0.13% | Total related substance [5, 13]: 0.10% | XRD [5, 13]: Same | stability of the crystal form (in words) ([5]; 60° C. 10 days, 25° C. RH92.5% 10 days, 40° C. RH75% 1 month, opened/closed package): the stability of the crystal form is good | Moisture absorption weight gain ([6]; 25° C. RH80% placing for 1 day): 0.002% | hygroscopicity (in words) ([6]; 25° C. and RH80% for 24 h): no or almost no hygroscopicity

C[C@@H]1CCc2ncc(F)cc2[C@H]2CCCN2c2ccn3ncc(c3n2)C(=O)N1 [LOXO-195, reference compound]
T/C ([4]; experiment 1, 3 mg/Kg): 93.6% | TGI ([4]; experiment 1, 3 mg/Kg): 6.4% | T/C ([4]; experiment 1, 10 mg/Kg): 63.1% | TGI ([4]; experiment 1, 10 mg/Kg): 36.9% | T/C ([4]; experiment 2, 30 mg/Kg): 0% | TGI ([4]; experiment 2, 30 mg/Kg): 100%
